Values joined by “and” are separate entries in the source; they are usually repeats but may differ in a detail not shown here. Equal values may be shown once.
What was measured:
[1] = system: Trypanosoma cruzi; experiment: microbe, parasite or virus in culture; format: functional, organism-based, Tulahuen C4 (LacZ); settings: Trypanosoma cruzi, Tulahuen C4 (LacZ), 96 h
Description: DNDI: Chagas in Vitro, 96 hour

[2] = cells; format: functional, cell-based; settings: Rattus norvegicus, L6, 72 h
Description: DNDI: Cytotoxicity in Vitro, 72 hour, in rat skeletal myoblast cells

[3] = cells; format: functional, cell-based; settings: Mus musculus, NMRI, BalbC or CD1 mice, Macrophage, 96 h
Description: DNDI: Cytotoxicity in Vitro, 96 hour, in mouse macrophages (infected-amastigotes)

[4] = system: Trypanosoma brucei rhodesiense; experiment: microbe, parasite or virus in culture; format: functional, organism-based, STIB 900
Description: DNDI: HAT in Vitro, 72 hour

[5] = system: Leishmania donovani; experiment: microbe, parasite or virus in culture; format: functional, organism-based, MHOM/ET/67/L82
Description: DNDI: Leish (axenic) in Vitro, 72 hour

[6] = system: Leishmania donovani; experiment: microbe, parasite or virus in culture; format: functional, organism-based, MHOM/ET/67/L82; settings: Leishmania donovani, MHOM/ET/67/L82, 96 h
Description: DNDI: Leish (macro) in Vitro, 96 hour

[7] = system: Plasmodium falciparum; experiment: microbe, parasite or virus in culture; format: functional, organism-based, K1
Description: DNDI: Malaria in Vitro, 72 hour

[8] = Trypanosoma brucei, STIB 900, 72 h
[9] = Leishmania donovani, MHOM/ET/67/L82, 72 h
[10] = Plasmodium falciparum, K1, 72 h

| Structure (SMILES) | IC50 [1] [µM] | IC50 [2] [µM] | IC50 [3] [µM] | IC50 [4, 8] [µM] | IC50 [5, 9] [µM] | IC50 [6] [µM] | IC50 [7, 10] [µM] | IC50 [4] [µM] | IC50 [5] [µM] | IC50 [7] |
| --- | --- | --- | --- | --- | --- | --- | --- | --- | --- | --- |
| C[C@H]1[C@@H](OC(=O)CCC(=O)O)O[C@@H]2O[C@]3(C)CC[C@H]4[C@H](C)CC[C@@H]1[C@@]24OO3 | 8.97 | 0.78 | > 7.8 | 16.8 | 0.35 | > 7.8 | 0.003 | – | – | – |
| CO[C@H]1/C=C/O[C@@]2(C)Oc3c(C)c(O)c4c(O)c(c(/C=N/N5CCN(C)CC5)c(O)c4c3C2=O)NC(=O)/C(C)=C\C=C\[C@H](C)[C@H](O)[C@@H](C)[C@@H](O)[C@H](C)[C@H](OC(C)=O)[C@H]1C | > 109 | 75.2 | > 36.5 | 16.7 | 1.53 | > 36.5 | 0.1 | – | – | – |
| CO[C@H]1/C=C/O[C@]2(C)Oc3c(C)c(O)c4c(O)c(c5c(nc6cc(C)ccn65)c4c3C2=O)NC(=O)/C(C)=C\C=C\[C@H](C)[C@H](O)[C@@H](C)[C@@H](O)[C@H](C)[C@H](OC(C)=O)[C@H]1C | 40.2 | 88 | > 38.2 | 17.1 | 15 | > 38.2 | 0.92 | – | – | – |
| CO[C@H]1/C=C/O[C@@]2(C)Oc3c(C)c(O)c4c(c3C2=O)C2=NC3(CCN(CC(C)C)CC3)NC2=C(NC(=O)/C(C)=C\C=C\[C@H](C)[C@H](O)[C@@H](C)[C@@H](O)[C@H](C)[C@H](OC(C)=O)[C@H]1C)C4=O | 27.5 | 60.9 | > 35.4 | 12.6 | 56.4 | > 35.4 | 1.59 | – | – | – |
| CC[C@@H]1OC(=O)[C@@H](C)[C@H](O[C@H]2C[C@@](C)(OC)[C@@H](O)[C@H](C)O2)[C@@H](C)[C@H](O[C@H]2O[C@@H](C)C[C@@H](N(C)C)[C@@H]2O)[C@@](C)(O)C[C@H](C)C(=O)[C@@H](C)[C@H](O)[C@@]1(C)O | 114 | 92.2 | > 39.9 | 72.1 | > 133 | > 39.9 | 9.91 | – | – | – |
| CCC[C@@H]1C[C@@H](C(=O)N[C@H]([C@@H]2O[C@H](SC)[C@H](O)[C@@H](O)[C@H]2O)[C@@H](C)O)N(C)C1 | > 221 | > 221 | > 73.8 | > 221 | > 221 | > 73.8 | 7.08 | – | – | – |
| COc1cc(C)c2c(Oc3cccc(C(F)(F)F)c3)c(OC)cc(N[C@H](C)CCCN)c2n1 | 6.11 | 5.52 | 6.47 | 1.42 | 17.9 | > 2.16 | 0.27 | – | – | – |
| CC(=O)[C@H]1CC[C@@H]2[C@@H]3CC[C@@H]4C[C@](C)(O)CC[C@]4(C)[C@H]3CC[C@@]12C | 65 | 23.5 | > 90.2 | 5.47 | 42.5 | > 30.1 | > 15 | – | – | – |
| C[C@H]1c2cccc(O)c2C(O)=C2C(=O)[C@]3(O)C(=O)/C(=C(/N)O)C(=O)[C@@H](N(C)C)[C@@H]3[C@@H](O)[C@@H]21 | 39.1 | 14.5 | 67.5 | 63.7 | 24.1 | > 22.5 | 4.48 | – | – | – |
| O[C@@H](c1cc(C(F)(F)F)nc2c(C(F)(F)F)cccc12)[C@H]1CCCCN1 [(S,R)-MEFLOQUINE] | 4.48 | 3.25 | 7.23 | 0.53 | 38.6 | 2.41 | 0.0024 | – | – | – |
| COC(=O)N[C@H](C(=O)N[C@@H](Cc1ccccc1)[C@@H](O)CN(Cc1ccc(-c2ccccn2)cc1)NC(=O)[C@@H](NC(=O)OC)C(C)(C)C)C(C)(C)C [ATAZANAVIR] | 33.3 | 46.5 | > 37.5 | 12.7 | 24.1 | > 37.5 | 7.95 | – | – | – |
| c1ccc(-c2ccc(C(c3ccccc3)n3ccnc3)cc2)cc1 (stereo not drawn) [BIFONAZOLE] | 0.003 | 39.3 | > 32.2 | 26.8 | 5.48 | > 32.2 | 3.18 | – | – | – |
| CN(C)CCCN1c2ccccc2Sc2ccc(Cl)cc21 [CHLORPROMAZINE] | 17.2 | 12.3 | 31.4 | 1.25 | 48.5 | > 9.41 | 3.03 | – | – | – |
| O=C(O)c1cn(C2CC2)c2cc(N3CCNCC3)c(F)cc2c1=O [CIPROFLOXACIN] | 92 | 118 | > 90.5 | 35.9 | > 302 | > 90.5 | 13.2 | – | – | – |
| C#C[C@]1(O)CC[C@H]2[C@@H]3CCC4=Cc5oncc5C[C@]4(C)[C@H]3CC[C@@]21C [DANAZOL] | 6.25 | 32 | > 29.6 | 45.9 | 10.2 | > 29.6 | 14.1 | – | – | – |
| OCCN(CCO)c1nc(N2CCCCC2)c2nc(N(CCO)CCO)nc(N3CCCCC3)c2n1 [DIPYRIDAMOLE] | 29.3 | 38.6 | > 59.5 | 7.45 | 62 | > 59.5 | 1.3 | – | – | – |
| COc1ccc(Cl)cc1C(=O)NCCc1ccc(S(=O)(=O)NC(=O)NC2CCCCC2)cc1 [GLYBURIDE] | 93.9 | 116 | > 60.7 | 87.7 | 9.8 | > 60.7 | 38.3 | – | – | – |
| COC1=CC(=O)C[C@@H](C)[C@]12Oc1c(Cl)c(OC)cc(OC)c1C2=O [GRISEOFULVIN] | 87.3 | 20.5 | > 85 | 40 | 87 | > 85 | 75.1 | – | – | – |
| NNC(=O)c1ccncc1 [ISONIAZID] | > 656 | > 656 | > 219 | > 656 | > 656 | > 219 | – | > 729 | > 729 | > 36.5 µM and 246 µM |
| CCC(C)n1ncn(-c2ccc(N3CCN(c4ccc(OCC5COC(Cn6cncn6)(c6ccc(Cl)cc6Cl)O5)cc4)CC3)cc2)c1=O (stereo not drawn) [ITRACONAZOLE] | 0.004 | 1.11 | 4.25 | 8.53 | 2.42 | > 1.42 | 1.37 | – | – | – |
| Cc1cccc(C)c1OCC(=O)N[C@@H](Cc1ccccc1)[C@@H](O)C[C@H](Cc1ccccc1)NC(=O)[C@H](C(C)C)N1CCCNC1=O [LOPINAVIR] | 15.4 | 18.9 | > 47.7 | 10.8 | 11.8 | > 47.7 | 1.92 | – | – | – |
| CCN(CCCCOC(=O)c1ccc(OC)c(OC)c1)C(C)Cc1ccc(OC)cc1 (stereo not drawn) [MEBEVERINE] | 3.89 | 70.8 | > 69.8 | 54.2 | > 210 | 54.9 | 1.74 | – | – | – |
| CN(C)c1ccc(O)c2c1C[C@H]1C[C@H]3[C@H](N(C)C)C(O)=C(C(N)=O)C(=O)[C@@]3(O)C(O)=C1C2=O [MINOCYCLINE] | 22.3 | 9.42 | > 21.9 | 36.6 | 45.7 | > 21.9 | 3.58 | – | – | – |

Reference: ChEMBL document CHEMBL3392926, “Antiprotozoal Activity Profiling of Approved Drugs: A Starting Point toward Drug Repositioning”
